Activity calls are given as the source filed them. The rule behind the calls is not given here.
Experiments:
LAD2 [1] = experiment: Cytotoxicity against human LAD2 cells assessed as reduction in cell viability at 10 uM incubated for 24 hrs by Cell Counting Kit assay; assay type: toxicity, cell-based; details: lad2, 24 h
LAD2 [2] = experiment: Anti-pseudo allergic activity in human LAD2 cells assessed as inhibition of C48/80-induced beta-hexosaminidase release at 0.1 to 10 uM pretreated for 30 mins followed by C48/80 addition measured after 30 mins; assay type: functional, cell-based; details: dose 0.1-10 µM, time 1.0 hrs
LAD2 [3] = experiment: Anti-pseudo allergic activity in human LAD2 cells assessed as inhibition of C48/80-induced beta-hexosaminidase release; assay type: functional, cell-based
LAD2 [4] = experiment: Anti-pseudo allergic activity in human LAD2 cells assessed as inhibition of C48/80-induced histamine release at 0.1 to 10 uM pretreated for 30 mins followed by C48/80 addition measured after 30 mins by HPLC-MS analysis; assay type: functional, cell-based; details: dose 0.1-10 µM
LAD2 [5] = experiment: Anti-pseudo allergic activity in human LAD2 cells assessed as decrease in C48/80-induced calcium intracellular mobilization at 10 uM by fluorescence based assay; assay type: functional, cell-based
Mus musculus [6] = experiment: Anti-pseudo allergic activity against C48/80-induced passive cutaneous anaphylaxis mouse model assessed as body temperature loss at 10 mg/kg followed by C48/80 administration intravenously after 30 mins post-compound administration measured every 5 mins for 30 mins; assay type: functional, organism-based; details: route iv, time 1.0 hrs
Mus musculus [7] = experiment: Anti-pseudo allergic activity against C48/80-induced passive cutaneous anaphylaxis mouse model assessed as reduction in serum histamine level at 1 to 10 mg/kg followed by C48/80 administration intravenously after 30 mins post-compound administration measured every 5 mins for 30 mins by LC/MS/MS analysis; assay type: functional, organism-based; details: dose 1-10 mg/kg, route iv
Mus musculus [8] = experiment: Anti-pseudo allergic activity against C48/80-induced passive cutaneous anaphylaxis mouse model assessed as increase in local tissue edema vascular permeability at 1 to 10 mg/kg followed by C48/80 administration after 30 mins post-compound administration measured every 5 mins for 30 mins; assay type: functional, organism-based; details: dose 1-10 mg/kg
Mus musculus [9] = experiment: Anti-pseudo allergic activity against C48/80-induced passive cutaneous anaphylaxis C57 mouse model assessed as reduction in paw thickness rate at 0 to 1 mg/kg followed by C48/80 intravenously administration after 15 mins by Evans blue method; assay type: functional, organism-based; details: dose 0-1 mg/kg, route iv
Mus musculus [10] = experiment: Anti-pseudo allergic activity against C48/80-induced passive cutaneous anaphylaxis mouse model assessed as decrease in degranulation level at 0 to 1 mg/kg followed by C48/80 addition measured after 45 mins by FITC-avidin staining based laser scanning confocal microscopy; assay type: functional, organism-based; details: dose 0-1 mg/kg
[11] = molecular target: T1, Mas-related G-protein coupled receptor member X2 (Homo sapiens) (UniProt Q96LB1); experiment: Antagonist activity at MRGPRX2 (unknown origin) expressed in HEK293 cells assessed as inhibition of calcium mobilization at upto 10 uM; assay type: functional, cell-based; details: filed as antagonist
T1 sequence (whole entry): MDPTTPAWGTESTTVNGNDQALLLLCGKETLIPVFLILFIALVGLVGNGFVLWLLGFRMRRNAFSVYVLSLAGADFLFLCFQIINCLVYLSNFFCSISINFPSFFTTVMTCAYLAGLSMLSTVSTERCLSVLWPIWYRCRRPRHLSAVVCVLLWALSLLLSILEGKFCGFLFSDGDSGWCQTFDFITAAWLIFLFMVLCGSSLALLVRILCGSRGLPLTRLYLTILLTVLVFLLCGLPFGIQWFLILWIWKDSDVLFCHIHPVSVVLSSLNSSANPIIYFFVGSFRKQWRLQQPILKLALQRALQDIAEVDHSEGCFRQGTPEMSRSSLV

HEK293 [12] = experiment: Anti-pseudo allergic activity in HEK293 cells expressing H1R assessed as inhibition of histamine induced calcium release at 0 to 10 uM; assay type: functional, cell-based; details: Homo sapiens, dose 0-10 µM
HEK293 [13] = experiment: Anti-pseudo allergic activity in HEK293 cells assessed as prevention of calcium entry in presence of emodin at 0 to 10 uM; assay type: functional, cell-based; details: Homo sapiens, dose 0-10 µM
Mus musculus [14] = experiment: Anti-pseudo allergic activity against passive cutaneous anaphylaxis-induced mouse model assessed as systemic symptoms at 1 to 10 mg/kg followed by C48/80 administration after 30 mins post-compound administration measured every 5 mins for 30 mins; assay type: functional, organism-based; details: dose 1-10 mg/kg
Mus musculus [15] = experiment: Anti-pseudo allergic activity against passive cutaneous anaphylaxis-induced C57 mouse model assessed as reduction in C48/80-induced extravasation rate at 0 to 1 mg/kg followed by C48/80 intravenously administration after 15 mins by Evans blue method; assay type: functional, organism-based; details: dose 0-1 mg/kg, route iv

Compound	Activity (LAD2 [1])	Activity (LAD2 [2])	IC50 (LAD2 [3]) [nM]	inhibition (LAD2 [4])	Activity (LAD2 [5])	Activity (Mus musculus [6])	Activity (Mus musculus [7])	Activity (Mus musculus [8])	Activity (Mus musculus [9])	Activity (Mus musculus [10])	Activity [11]	Activity (HEK293 [12])	Activity (HEK293 [13])	Activity (Mus musculus [14])	Activity (Mus musculus [15])
O=C(Nc1ccc(Br)cc1)Nc1ccc(C(F)(F)F)cc1Cl	Non-Toxic	Active	2510	Active	–	–	–	–	–	–	–	–	–	–	–
O=C(Nc1ccc(C(F)(F)F)cc1)Nc1ccc(C(F)(F)F)cc1Cl	Non-Toxic	Active	800	Active	–	–	–	–	–	–	–	–	–	–	–
O=C(Nc1ccc(C(F)(F)F)cc1)Nc1ccc(C(F)(F)F)cc1	Non-Toxic	Active	970	Active	Active	Active	Active	Active	Active	Active	Active	Active	Active	Active	Active
O=C(Nc1ccc(Br)cc1)Nc1ccc(Br)cc1	Non-Toxic	–	–	–	–	–	–	–	–	–	–	–	–	–	–
O=C(Nc1ccc(C(F)(F)F)cc1)Nc1cc(Br)cc(C(F)(F)F)c1	Non-Toxic	Active	620	Active	Active	Active	Active	Active	Active	Active	Active	Active	Active	Active	Active
O=C(Nc1ccc(F)cc1)Nc1cc(Br)cc(C(F)(F)F)c1	Non-Toxic	–	–	–	–	–	–	–	–	–	–	–	–	–	–
O=C(Nc1ccc(F)cc1)Nc1ccc(C(F)(F)F)cc1Cl	Non-Toxic	Active	1400	Active	–	–	–	–	–	–	–	–	–	–	–
O=C(Nc1ccc(Cl)c(C(F)(F)F)c1)Nc1ccc(C(F)(F)F)cc1Cl	–	Active	1100	Active	–	–	–	–	–	–	–	–	–	–	–
O=C(Nc1cccc(C(F)(F)F)c1)Nc1cccc(C(F)(F)F)c1	Non-Toxic	Active	1590	Active	–	–	–	–	–	–	–	–	–	–	–
O=C(Nc1ccc(F)cc1)Nc1ccc(C(F)(F)F)cc1	Non-Toxic	Active	1640	Active	–	–	–	–	–	–	–	–	–	–	–
O=C(Nc1ccc(F)cc1)Nc1ccc(F)cc1	Non-Toxic	–	–	–	–	–	–	–	–	–	–	–	–	–	–
O=C(Nc1ccc(C(F)(F)F)cc1Cl)Nc1ccc(C(F)(F)F)cc1Cl	Non-Toxic	Active	2160	Active	–	–	–	–	–	–	–	–	–	–	–
O=C(Nc1ccc(Cl)c(C(F)(F)F)c1)Nc1ccc(Cl)c(C(F)(F)F)c1	Non-Toxic	Active	790	Active	Active	Active	Active	Active	Active	Active	Active	Active	Active	Active	Active
